Measurements taken from patent US20250049938A1, “ANTIBODY-DRUG CONJUGATE AND USE THEREOF” (priority 2021, published 2025).
Starred links: 1 amine or outer side, 2 acyl side, 3 side chain; linkers in the order of their positions; H or OH if unused. Non-standard residues stand in square brackets, D forms with d. Residues, ends and D or L forms follow the SMILES beside them. *: point of attachment. Exatecan = CC[C@@]1(O)C(=O)OCc2c1cc1n(c2=O)Cc2c-1nc1cc(F)c(C)c3c1c2[C@@H](N*)CC3; Hexanoyl(6-maleimido) = O=C1C=CC(=O)N1CCCCCC(=O)*; NHCH2OCH2CO = O=C(COCN[*:1])[*:2]

system: human colon cancer SW620 cells; experiment: In vitro killing of human colon cancer SW620 cells (CellTiter-Glo); type: cell-based; conditions: FIG. 2B; 2-fold dilutions from 400 nM, 9 concentrations; culturing 4 days and 6 days
Procedure: Human colon cancer SW620 cells in the logarithmic growth phase were digested with pancreatin, and subsequently resuspended in a corresponding culture medium, with the density adjusted to be 2×10^4 cells/mL. The cells were seeded into a 96-well microplate at 100 μL/well, allowing for a density of 2×10^3 cells/well, and 200 μL of the culture medium was added to each of the rest wells. After culturing for 48 h at 37° C., 5% CO2, the supernatant was pipetted from the cell culture plate. The linker-drugs (04-Dxd, 07-Dxd, 08-Dxd, and 09-Dxd), HER3 ADCs (HER3-ADC04, HER3-ADC07, HER3-ADC08, and HER3-ADC09), and a monoclonal antibody control were diluted in a 2-fold gradient with the culture medium, starting from the initial concentration of 400 nM, to obtain a total of 9 concentration gradients. The diluted samples were added at 100 μL/well. After further culturing for 4 days and 6 days, color development was carried out. The cell plate was taken out and equilibrated for 15-20 min at room temperature, and subsequently 100 μL of CellTiter-Glo® Luminescent Cell Viability assay buffer (purchased from Promega) was added. The plate was shaken for 2 min on a shaker at 200 rpm, kept for 18 min in the dark, and read using an M5 microplate reader.
followed by plotting through four-parameter fitting, with the logarithm of the concentration as the abscissa and the killing rate as the ordinate.

Structure (SMILES)	in vitro killing effect of linker-Dxd drugs on SW620 cells
CC[C@@]1(O)C(=O)OCc2c1cc1n(c2=O)Cc2c-1nc1cc(F)c(C)c3c1c2[C@@H](NC(=O)COCNC(=O)CNC(=O)[C@H](Cc1ccccc1)NC(=O)CNC(=O)CNC(=O)CCCCCN1C(=O)C=CC1=O)CC3 [04-Dxd, reference compound] ({Hexanoyl(6-maleimido)}-GGFG[NHCH2OCH2CO]-Exatecan)	killing effect
CC[C@@]1(O)C(=O)OCc2c1cc1n(c2=O)Cc2c-1nc1cc(F)c(C)c3c1c2[C@@H](NC(=O)COCNC(=O)CNC(=O)[C@H](Cc1ccccc1)NC(=O)CNC(=O)[C@H](C)NC(=O)[C@@H](NC(=O)CCCCCN1C(=O)C=CC1=O)C(C)C)CC3 [07-Dxd] ({Hexanoyl(6-maleimido)}-VAGFG[NHCH2OCH2CO]-Exatecan)	significantly better killing effect than 04-Dxd
CC[C@@]1(O)C(=O)OCc2c1cc1n(c2=O)Cc2c-1nc1cc(F)c(C)c3c1c2[C@@H](NC(=O)COCNC(=O)CNC(=O)[C@H](Cc1ccccc1)NC(=O)CNC(=O)[C@H](CO)NC(=O)[C@H](C)NC(=O)[C@@H](NC(=O)CCCCCN1C(=O)C=CC1=O)C(C)C)CC3 [08-Dxd] ({Hexanoyl(6-maleimido)}-VASGFG[NHCH2OCH2CO]-Exatecan)	significantly better killing effect than 04-Dxd
CC[C@@]1(O)C(=O)OCc2c1cc1n(c2=O)Cc2c-1nc1cc(F)c(C)c3c1c2[C@@H](NC(=O)COCNC(=O)CNC(=O)[C@H](Cc1ccccc1)NC(=O)CNC(=O)[C@H](CO)NC(=O)[C@H](CO)NC(=O)[C@H](C)NC(=O)[C@@H](NC(=O)CCCCCN1C(=O)C=CC1=O)C(C)C)CC3 [09-Dxd] ({Hexanoyl(6-maleimido)}-VASSGFG[NHCH2OCH2CO]-Exatecan)	significantly better killing effect than 04-Dxd
